Activity calls are given as the source filed them.
How the values were obtained:
[1] = target: T1, Carboxy-terminal domain RNA polymerase II polypeptide A small phosphatase 1 (Homo sapiens, UniProt Q9GZU7); assay: CTDSP1 inhibitors, concentration-response, biochemical, absorbance readout, ultra-high-throughput screen actives (AID 540297); type: functional
T1 sequence (Q9GZU7 whole entry): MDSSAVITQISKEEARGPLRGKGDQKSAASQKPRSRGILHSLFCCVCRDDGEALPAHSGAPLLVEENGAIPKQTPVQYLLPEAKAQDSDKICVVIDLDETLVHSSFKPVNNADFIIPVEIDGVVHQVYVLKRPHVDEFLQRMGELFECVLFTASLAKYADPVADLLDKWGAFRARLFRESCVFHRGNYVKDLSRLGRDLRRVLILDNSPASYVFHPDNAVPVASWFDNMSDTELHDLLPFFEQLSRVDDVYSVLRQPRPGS

[2] = target: Induced myeloid leukemia cell differentiation protein Mcl-1 (Homo sapiens, UniProt Q07820); type: functional
[3] = target: T2, Caspase-6 (Homo sapiens, UniProt P55212); assay: inhibition of CASP6 peptide cleavage – biochemical, VEID-R110 fluorescence, cherry-pick, dose response (AID 720632)
T2 sequence (P55212 whole entry): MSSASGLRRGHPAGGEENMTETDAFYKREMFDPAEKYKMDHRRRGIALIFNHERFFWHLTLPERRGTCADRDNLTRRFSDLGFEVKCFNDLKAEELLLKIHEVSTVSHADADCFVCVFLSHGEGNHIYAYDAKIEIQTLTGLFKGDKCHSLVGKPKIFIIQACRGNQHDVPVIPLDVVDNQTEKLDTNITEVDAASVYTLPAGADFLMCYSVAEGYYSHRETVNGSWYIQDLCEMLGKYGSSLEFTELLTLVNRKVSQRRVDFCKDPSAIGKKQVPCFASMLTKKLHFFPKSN

[4] = target: Eukaryotic translation initiation factor 4E (Mus musculus, UniProt P63073); assay: blockers of eIF4G binding by eIF4E – biochemical, TR-FRET, dose response (AID 855); type: functional;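 further: potency for disrupting eIF4E binding to eIF4GI seen as loss of FRET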
[5] = target: T3, 1-phosphatidylinositol 4,5-bisphosphate phosphodiesterase beta-3 (Homo sapiens, UniProt Q01970); assay: Fluorescence-based biochemical high throughput dose response assay to identify inhibitors of phospholipase C isozymes (PLC-B3).
T3 sequence (Q01970 whole entry): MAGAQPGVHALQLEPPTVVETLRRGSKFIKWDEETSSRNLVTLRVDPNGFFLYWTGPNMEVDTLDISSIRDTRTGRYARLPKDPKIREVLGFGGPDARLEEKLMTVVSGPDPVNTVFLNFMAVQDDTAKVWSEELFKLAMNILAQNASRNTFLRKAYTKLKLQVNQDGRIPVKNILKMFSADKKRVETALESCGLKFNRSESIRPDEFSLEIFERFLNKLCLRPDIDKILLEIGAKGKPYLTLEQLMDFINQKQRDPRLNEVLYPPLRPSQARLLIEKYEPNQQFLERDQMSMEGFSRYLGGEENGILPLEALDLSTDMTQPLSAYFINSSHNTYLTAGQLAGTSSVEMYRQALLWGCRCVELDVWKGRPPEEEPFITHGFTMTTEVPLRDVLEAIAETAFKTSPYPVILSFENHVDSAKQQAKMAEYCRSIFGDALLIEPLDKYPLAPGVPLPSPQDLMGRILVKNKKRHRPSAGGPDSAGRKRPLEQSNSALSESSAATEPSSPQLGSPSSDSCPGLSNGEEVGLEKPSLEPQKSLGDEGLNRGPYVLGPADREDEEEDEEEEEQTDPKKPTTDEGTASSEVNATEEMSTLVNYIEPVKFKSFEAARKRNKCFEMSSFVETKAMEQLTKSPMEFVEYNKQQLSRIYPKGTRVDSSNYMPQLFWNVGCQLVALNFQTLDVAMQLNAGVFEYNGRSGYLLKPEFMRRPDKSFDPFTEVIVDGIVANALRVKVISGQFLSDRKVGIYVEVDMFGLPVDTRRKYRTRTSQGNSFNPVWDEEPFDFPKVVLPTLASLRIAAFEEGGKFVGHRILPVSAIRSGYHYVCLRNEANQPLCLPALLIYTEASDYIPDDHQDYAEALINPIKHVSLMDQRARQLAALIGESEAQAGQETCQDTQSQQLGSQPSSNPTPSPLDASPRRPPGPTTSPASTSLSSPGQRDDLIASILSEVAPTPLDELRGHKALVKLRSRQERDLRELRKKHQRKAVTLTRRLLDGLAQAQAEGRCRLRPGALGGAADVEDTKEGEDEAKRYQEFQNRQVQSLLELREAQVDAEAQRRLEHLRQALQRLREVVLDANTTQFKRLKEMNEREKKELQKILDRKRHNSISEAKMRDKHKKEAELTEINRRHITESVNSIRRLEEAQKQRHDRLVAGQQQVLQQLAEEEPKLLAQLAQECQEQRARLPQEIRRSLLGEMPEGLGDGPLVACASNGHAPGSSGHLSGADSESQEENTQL

[6] = tested on: Streptococcus sp. 'group A'; assay: Streptococcus pyogenes SK(-)GAS viability under kanamycin – luminescence, BacTiterGlo, confirmation, counter-screen for streptokinase expression inhibitor project, dose response (AID 1900); type: functional, organism-based
[7] = target: T4, 1-phosphatidylinositol 4,5-bisphosphate phosphodiesterase gamma-1 (Homo sapiens, UniProt P19174); assay: Counterscreen for inhibitors of phospholipase C isozymes (PLC-B3): Fluorescence-based biochemical high throughput dose response assay to identify inhibitors of phospholipase C isozymes (PLC-gamma1).
T4 sequence (P19174 whole entry): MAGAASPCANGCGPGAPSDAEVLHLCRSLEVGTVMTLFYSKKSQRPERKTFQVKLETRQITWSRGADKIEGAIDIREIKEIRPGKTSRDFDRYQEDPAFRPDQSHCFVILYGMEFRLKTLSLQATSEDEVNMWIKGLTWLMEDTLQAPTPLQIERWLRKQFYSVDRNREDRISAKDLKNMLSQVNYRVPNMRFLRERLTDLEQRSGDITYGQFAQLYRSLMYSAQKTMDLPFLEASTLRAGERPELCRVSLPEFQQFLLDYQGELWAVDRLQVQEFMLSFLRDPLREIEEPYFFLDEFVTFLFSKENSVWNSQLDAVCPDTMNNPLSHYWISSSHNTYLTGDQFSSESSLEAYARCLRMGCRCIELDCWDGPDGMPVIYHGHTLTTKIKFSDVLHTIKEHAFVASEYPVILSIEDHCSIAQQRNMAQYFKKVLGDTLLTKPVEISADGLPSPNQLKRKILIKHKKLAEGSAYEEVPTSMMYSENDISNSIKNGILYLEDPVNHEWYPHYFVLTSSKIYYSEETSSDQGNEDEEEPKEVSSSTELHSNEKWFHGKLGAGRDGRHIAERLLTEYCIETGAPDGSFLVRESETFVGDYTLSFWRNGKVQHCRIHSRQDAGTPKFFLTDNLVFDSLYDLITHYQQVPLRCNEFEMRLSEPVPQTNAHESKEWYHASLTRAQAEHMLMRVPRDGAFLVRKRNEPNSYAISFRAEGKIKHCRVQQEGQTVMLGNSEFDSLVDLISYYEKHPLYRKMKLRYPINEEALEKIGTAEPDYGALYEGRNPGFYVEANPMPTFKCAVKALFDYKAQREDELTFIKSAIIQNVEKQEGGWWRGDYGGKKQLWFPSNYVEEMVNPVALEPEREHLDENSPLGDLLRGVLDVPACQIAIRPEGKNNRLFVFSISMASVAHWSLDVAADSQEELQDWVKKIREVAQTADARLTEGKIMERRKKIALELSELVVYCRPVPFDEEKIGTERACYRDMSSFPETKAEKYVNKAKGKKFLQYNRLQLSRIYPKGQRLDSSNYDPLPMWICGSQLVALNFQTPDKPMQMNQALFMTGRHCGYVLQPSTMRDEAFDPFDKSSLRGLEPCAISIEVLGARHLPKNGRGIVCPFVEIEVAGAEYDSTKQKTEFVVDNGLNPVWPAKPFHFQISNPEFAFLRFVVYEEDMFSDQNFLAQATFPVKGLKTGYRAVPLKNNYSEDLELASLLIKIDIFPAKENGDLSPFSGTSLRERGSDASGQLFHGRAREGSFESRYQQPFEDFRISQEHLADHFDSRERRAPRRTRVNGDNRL

[8] = target: T5, Streptokinase A (Streptococcus pyogenes serotype M1, UniProt P10520); assay: viability-normalized secreted streptokinase activity reduction – plasminogen activation absorbance, OD405, dose response (AID 1914); type: functional, Streptococcus pyogenes M1 GAS;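 further: secreted streptokinase activity via plasminogen activation per viability signal from cell pellet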
T5 sequence (P10520 whole entry): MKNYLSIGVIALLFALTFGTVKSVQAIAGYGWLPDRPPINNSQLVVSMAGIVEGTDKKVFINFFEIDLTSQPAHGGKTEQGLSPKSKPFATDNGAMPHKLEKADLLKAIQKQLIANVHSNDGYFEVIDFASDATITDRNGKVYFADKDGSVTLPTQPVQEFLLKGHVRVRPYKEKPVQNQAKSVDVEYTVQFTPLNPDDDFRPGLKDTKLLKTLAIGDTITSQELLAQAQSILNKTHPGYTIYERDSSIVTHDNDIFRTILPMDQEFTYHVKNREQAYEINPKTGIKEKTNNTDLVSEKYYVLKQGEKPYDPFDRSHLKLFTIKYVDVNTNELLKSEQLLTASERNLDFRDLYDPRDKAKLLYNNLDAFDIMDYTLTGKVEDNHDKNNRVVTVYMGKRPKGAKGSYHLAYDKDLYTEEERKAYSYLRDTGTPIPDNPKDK

[9] = tested on: Streptococcus; assay: GAS UMAA2166 growth inhibition – luminescence, BacTiterGlo, counter-screen for streptokinase expression inhibitor project, dose response (AID 1915); type: functional, organism-based;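 further: potency for reduction of bacterial viability or growth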
[10] = target: DNA dC->dU-editing enzyme APOBEC-3A (Homo sapiens, UniProt P31941); assay: Dose Response confirmation of small molecule APOBEC3A DNA Deaminase Inhibitors via a fluorescence-based single-stranded DNA deaminase assay. [Related pubchem assays (depositor defined):AID493011, AID493024]; type: functional
[11] = target: DNA dC->dU-editing enzyme APOBEC-3G (Homo sapiens, UniProt Q9HC16); type: functional;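 further: Dose-response counterscreen measuring inhibition of APOBEC3G DNA deaminase activity, run while confirming APOBEC3A inhibitors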
[12] = cells
[13] = target: Major prion protein (Homo sapiens, UniProt P04156); type: functional, cell-based
[14] = target: Peroxisome proliferator-activated receptor gamma/Nuclear receptor coactivator 1 (Homo sapiens, UniProt P37231); assay: (§1) TR-FRET dose response biochemical High Throughput Screening assay for agonists of the steroid receptor coactivator 1 (SRC-1) recruitment by the peroxisome proliferator-activated receptor gamma (PPAR gamma): non-selective agonists. [Related pubchem assays (depositor defined):AID1300, AID1808, AID504735, AID631]; type: protein assay
[15] = target: Peroxisome proliferator-activated receptor gamma/Nuclear receptor coactivator 3 (Homo sapiens, UniProt P37231); assay: as §1, with “3 (SRC-3)” for “1 (SRC-1)”, “assays: 1301 (Confirmation screen.), 1048 (Primary screen.)]” for “assays (depositor defined):AID1300, AID1808, AID504735, AID631]”; type: functional
[16] = target: T6, Protein skinhead-1 (Caenorhabditis elegans, UniProt P34707); type: functional
T6 sequence (P34707 whole entry): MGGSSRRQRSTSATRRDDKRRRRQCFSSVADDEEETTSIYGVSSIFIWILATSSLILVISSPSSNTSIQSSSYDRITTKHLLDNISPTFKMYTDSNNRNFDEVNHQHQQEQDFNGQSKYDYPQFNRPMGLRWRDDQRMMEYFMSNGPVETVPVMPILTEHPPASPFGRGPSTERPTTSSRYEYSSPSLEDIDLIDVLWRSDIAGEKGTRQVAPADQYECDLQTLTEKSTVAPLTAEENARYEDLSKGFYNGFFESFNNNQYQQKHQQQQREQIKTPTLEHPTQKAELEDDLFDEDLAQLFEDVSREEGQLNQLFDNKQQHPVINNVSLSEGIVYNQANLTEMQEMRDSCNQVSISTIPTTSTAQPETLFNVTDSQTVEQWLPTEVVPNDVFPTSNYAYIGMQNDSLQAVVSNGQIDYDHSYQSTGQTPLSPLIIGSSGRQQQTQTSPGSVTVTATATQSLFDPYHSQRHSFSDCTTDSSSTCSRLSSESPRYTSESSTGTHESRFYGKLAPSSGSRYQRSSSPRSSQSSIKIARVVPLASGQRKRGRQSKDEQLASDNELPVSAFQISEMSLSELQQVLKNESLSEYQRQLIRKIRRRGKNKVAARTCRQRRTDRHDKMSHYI

[17] = target: Peroxisome proliferator-activated receptor gamma/Nuclear receptor coactivator 2 (Homo sapiens, UniProt P37231); assay: TR-FRET dose response biochemical High Throughput Screening assay for agonists of the steroid receptor coactivator 2 (SRC-2) recruitment by the peroxisome proliferator-activated receptor gamma (PPAR gamma): non-selective agonists. [Related pubchem assays: 1297, 1032 ]; type: functional
[18] = HIV-1 Vif–A3G interaction blockers – biochemical, TR-FRET, GST-Vif 1-94, biotin-A3G peptide, dose response retest, primary screen (AID 1117319); type: functional;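 further: TR-FRET signal of purified GST-Vif binding a biotinylated A3G peptide; inhibitors lower the FRET signal by blocking Vif and A3G binding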

O=C(CSc1ccsc1[N+](=O)[O-])Nc1cc(F)ccc1F
IC50 [1]: 2.76 µM (active) | IC50 [2]: 6.52 µM (not active) | AC50 [3]: 5.74 µM (active) | IC50 [4]: 28.4 µM (active)

O=C(CC1S/C(=N\c2ccccc2)N(CCc2c[nH]c3ccccc23)C1=O)Nc1ccccc1F (stereo unspecified)
IC50 [5]: > 122 µM (inactive) | EC50 [6]: 13.2 µM (active) | IC50 [7]: > 122 µM (inactive) | EC50 [8]: 14 µM (inconclusive) | EC50 [9]: 43.5 µM (active)

CCOc1cccc(C(=O)Nc2ccc(NC(=O)c3ccccc3)c(C)c2)c1
IC50 [5]: > 122 µM (inactive) | IC50 [7]: > 122 µM (inactive)

CC1(CC(=O)N/N=C/c2cc([N+](=O)[O-])c(O)cc2O)OCCO1
IC50 [10]: 19.3 µM (active) | IC50 [5]: > 122 µM (inactive) | IC50 [1]: 4.41 µM (active) | IC50 [7]: > 122 µM (inactive) | AC50 [3]: 23.7 µM (active) | IC50 [11]: 41 µM (active)

Cc1cc2cc(CNC(=O)c3ccc(S(=O)(=O)N4CCCC4)cc3)ccc2n1C
IC50 [12]: > 138 µM (inactive) | IC50 [13]: 21.5 µM (inactive) | EC50 [14]: 3.68 µM (active) | EC50 [15]: 8.02 µM (active) | IC50 [16]: > 100 µM (inactive) | EC50 [17]: 3.91 µM (active)

COc1ccccc1N1CCN(C(=O)c2cc(-c3cccs3)on2)CC1
IC50 [18]: > 100 µM (active)

CCOC(=O)C1CCN(S(=O)(=O)c2cccc(-c3cn4cccc(C)c4n3)c2)CC1
IC50 [18]: > 100 µM (active)

CC(=O)c1ccc(Nc2nc(=O)c3cccnc3s2)cc1
IC50 [18]: > 100 µM (active)

Reference: ChEMBL document CHEMBL1201862, “PubChem BioAssay data set” (2004)
